Test results from publication PMC6150229, “Simultaneous Determination of Twenty-Five Compounds in Rat Plasma Using Ultra-High Performance Liquid Chromatography-Polarity Switching Tandem Mass Spectrometry and Its Application to a Pharmacokinetic Study” (Molecules : A Journal of Synthetic Chemistry and Natural …, 2017).

What was measured:
[1] = Pharmacokinetic study in sham and myocardial ischemia model rats after a single oral dose of QSKL (UHPLC-psMS/MS of plasma, non-compartmental analysis); conditions: for distribution in rat plasma (quantifiable or not): QSKL-treated plasma samples, sham and model rats, single oral dose 8.0 g/kg; for AUC(0-t) / AUC(0-inf) / Cmax / MRT / Tmax / half-life: male, Sprague-Dawley, rat, plasma, po, 8 g/kg; for AUC(0-inf): AUC0–∞
Description: (§1) Twelve male Spargue-Dawley rats (200 ± 20 g) were supplied by Vital River Laboratory Animal Technology Co. Ltd. (Beijing, China). […] The rats were acclimated under a humidity (50%) controlled room at 22–25 °C with a 12 h light-dark cycle, and standard diet and water were provided ad libitum for one week.
(§2) Afterwards, all rats were randomly divided into two groups, namely sham and model groups. The myocardial ischemia model was simulated by left anterior descending (LAD) coronary artery ligation [12], whilst the rats belonging to the sham group received the similar surgery, however no actual ligation in LAD. All animals were fasted overnight with free access to water prior to oral dosing. Aliquots (250 μL) of blood were sampled at 0 (pre-dose), 0.08, 0.25, 0.5, 0.75, 1, 1.5, 2, 4, 6, 8, 12, and 24 h from venous around eye socket into heparinized tubes after a single oral dosing of 8.0 g/kg of QSKL and the collected blood samples were immediately subjected for 4000 rpm centrifugation for 10 min at 4 °C to harvest the plasma samples. Each 100 μL aliquot of plasma sample was transferred into another Eppendorf tube and stored at −80 °C till use.
(§3) When analysis, 300 μL of internal standards (200 ng/mL for either internal standard) fortified ACN, corresponding to three volumes of plasma, was spiked into each thawed plasma sample and mixed thoroughly. Then, the resulting samples were processed as those calibration samples.
(§4) Individual animal plasma concentrations versus time dataset were subjected to a non-compartmental pharmacokinetic analysis using WinNonlin software (ver. 6.4, Pharsight Corp., Sunnyvale, CA, USA). The pharmacokinetic parameters of each analyte including the maximum plasma concentration (Cmax), the time at which Cmax was achieved (Tmax), the terminal elimination half-life (t1/2), and the area under the plasma concentration versus time curve (AUC0→t along with AUC0→∞) were calculated. Moreover, Lz corresponding to the ratio of the dosage and AUC0→∞, as well as mean residence time (MRT) that was defined as the ratio of the area under the first moment curve from time 0 to infinity (AUMC0→∞/AUC0→∞) was also calculated. All results are expressed as mean ± SD. Comparisons regarding the pharmacokinetic parameters were carried out between sham and model groups using Student’s t-test, and p values less than 0.05 were considered to be significant.

in vivo = conditions: male, Sprague-Dawley, rat, po, 8 g/kg, oral administration of QSKL, plasma, mean ± SD, n = 6; for AUC(0-t): AUC0–t; for AUC(0-inf): AUC0–∞
Description: as §1, §2, §3, §4

[2] = AUC0–t, model group (MG, myocardial ischemia) rats, oral administration of QSKL, mean ± SD, n = 6
[3] = AUC0–t, sham group (SG) rats, oral administration of QSKL, mean ± SD, n = 6
[4] = model group (MG, myocardial ischemia) rats, oral administration of QSKL, mean ± SD, n = 6
[5] = sham group (SG) rats, oral administration of QSKL, mean ± SD, n = 6
[6] = t1/2, model group (MG, myocardial ischemia) rats, oral administration of QSKL, mean ± SD, n = 6
[7] = t1/2, sham group (SG) rats, oral administration of QSKL, mean ± SD, n = 6
[8] = rats, after oral dosing QSKL 8.0 g/kg
[9] = model group (MG, myocardial ischemia) rats

With `C[C@@H]1O[C@@H](O[C@@H]2[C@@H](O)[C@H](OCCc3ccc(O)c(O)c3)O[C@H](COC(=O)/C=C/c3ccc(O)c(O)c3)[C@H]2O)[C@H](O)[C@H](O)[C@H]1O` [isoacteoside] the “distribution in rat plasma (quantifiable or not)” value [1] was “unquantifiable in most QSKL-treated samples”.
Compound `O=C(/C=C/c1ccc(O)cc1)c1ccc(O)cc1O` [isoliquiritigenin] has an AUC(0-t) [1, 2] of 1.56 ± 0.668 ng·h/mL, an AUC(0-t) [1, 3] of 1.87 ± 1.21 ng·h/mL and an AUC(0-inf) [1, 4] of 1.71 ± 0.74 ng·h/mL. The AUC(0-inf) [1, 5] was 2.07 ± 1.31 ng·h/mL, the Cmax [1, 4] was 0.401 ± 0.103 ng/mL and the Cmax [1, 5] was 0.389 ± 0.137 ng/mL. The MRT [1, 4] was 8.14 ± 2.95 h, the MRT [1, 5] was 7.85 ± 0.6 h and the Tmax [1, 4] was 0.37 ± 0.28 h. The Tmax [1, 5] was 0.15 ± 0.13 h, the half-life [1, 6] was 4.69 ± 2.06 h and the half-life [1, 7] was 4.37 ± 1.37 h. For the same compound, the “shape of plasma concentration-time profile” value [1, 8] was “Multiple-peak profiles”.
With `Cc1coc2c1C(=O)C(=O)c1c-2ccc2c1CCCC2(C)C` [tanshinone IIA] the “distribution in rat plasma (quantifiable or not)” value [1] was “quantifiable in most samples”, the AUC(0-t) [1, 2] was 4.28 ± 0.678 ng·h/mL and the AUC(0-t) [1, 3] was 3.18 ± 0.664 ng·h/mL. It also gave an AUC(0-inf) [1, 4] of 7.17 ± 3.08 ng·h/mL, an AUC(0-inf) [1, 5] of 4.77 ± 1.45 ng·h/mL and an AUC(0-t) ([1]; AUC0→t, model (myocardial ischemia, LAD ligation) rats, single oral dose of 8.0 g/kg QSKL, mean ± SD, n = 6) of 4.28 ± 0.678 ng·h/mL. For the same compound, the AUC(0-t) ([1]; AUC0→t, sham rats, single oral dose of 8.0 g/kg QSKL, mean ± SD, n = 6) was 3.18 ± 0.664 ng·h/mL, the Cmax [1, 4] was 0.349 ± 0.089 ng/mL and the Cmax [1, 5] was 0.376 ± 0.15 ng/mL. For the same compound, the MRT [1, 4] was 26.4 ± 14.9 h, the MRT [1, 5] was 20.9 ± 5.14 h and the Tmax [1, 4] was 8.71 ± 8.03 h. It also gave a Tmax [1, 8] of 8 h, a Tmax [1, 5] of 0.67 ± 0.3 h and a half-life [1, 6] of 18 ± 10.8 h. It also gave a half-life [1, 7] of 13.8 ± 4.05 h.
For `COC(=O)C1=CO[C@@H](O[C@@H]2O[C@H](CO)[C@@H](O)[C@H](O)[C@H]2O)[C@@H]2[C@H](C)O[C@@H](O)C[C@H]12` [morroniside], the “distribution in rat plasma (quantifiable or not)” value [1] was “quantifiable in most samples”, the AUC(0-t) [1, 2] was 19.5 ± 3.53 ng·h/mL and the AUC(0-t) [1, 3] was 16.5 ± 3.91 ng·h/mL. It also gave an AUC(0-inf) [1, 4] of 29.2 ± 4.1 ng·h/mL, an AUC(0-inf) [1, 5] of 24.9 ± 2.95 ng·h/mL and a Cmax [1, 4] of 4.21 ± 3.41 ng/mL. It also gave a Cmax [1, 5] of 2.04 ± 1.07 ng/mL, an MRT [1, 4] of 21.1 ± 8.23 h and an MRT [1, 5] of 25.1 ± 13.5 h. It also gave a Tmax [1, 4] of 0.46 ± 0.25 h, a Tmax [1, 5] of 0.37 ± 0.19 h and a half-life [1, 6] of 14.2 ± 5.79 h. For the same compound, the half-life [1, 7] was 15.8 ± 9.38 h.
With `COCC12CCC(OC)C34C5CC6(O)C(OC)C(O)C(O)(C5C6OC(=O)c5ccccc5)C(C(OC)C13)C4N(C)C2` (stereo not shown) [benzoylhypaconine] the AUC(0-t) (in vivo; [9]) was 0.926 ± 0.279 ng·h/mL, the AUC(0-t) (in vivo; sham group (SG) rats) was 0.985 ± 0.167 ng·h/mL and the AUC(0-inf) (in vivo; [9]) was 1.66 ± 0.331 ng·h/mL. The AUC(0-inf) (in vivo; sham group (SG) rats) was 1.78 ± 0.905 ng·h/mL, the Cmax (in vivo; [9]) was 0.466 ± 0.302 ng/mL and the Cmax (in vivo; sham group (SG) rats) was 0.284 ± 0.209 ng/mL. The MRT (in vivo; [9]) was 23.6 ± 7.39 h, the MRT (in vivo; sham group (SG) rats) was 22.7 ± 14.9 h and the Tmax (in vivo; [9]) was 0.43 ± 0.36 h. It also gave a Tmax (in vivo; sham group (SG) rats) of 0.48 ± 0.33 h, a half-life (in vivo; t1/2, model group (MG, myocardial ischemia) rats) of 16.3 ± 5.46 h and a half-life (in vivo; t1/2, sham group (SG) rats) of 15.6 ± 9.06 h. The “distribution in rat plasma (quantifiable or not)” value [1] was “quantifiable in most samples”.
With `COc1ccc(-c2coc3cc(O)ccc3c2=O)cc1O` [calycosin] the “distribution in rat plasma (quantifiable or not)” value [1] was “quantifiable in most samples”, the AUC(0-t) [1, 2] was 0.89 ± 0.284 ng·h/mL and the AUC(0-t) [1, 3] was 1.03 ± 0.181 ng·h/mL. For the same compound, the AUC(0-inf) [1, 4] was 1.04 ± 0.268 ng·h/mL, the AUC(0-inf) [1, 5] was 3.09 ± 1.95 ng·h/mL and the Cmax [1, 4] was 0.347 ± 0.197 ng/mL. The Cmax [1, 5] was 0.3 ± 0.244 ng/mL, the MRT [1, 4] was 15 ± 4.54 h and the MRT [1, 5] was 55.9 ± 34.6 h. For the same compound, the Tmax [1, 4] was 0.28 ± 0.24 h, the Tmax [1, 5] was 0.33 ± 0.29 h and the half-life [1, 6] was 9.27 ± 3.21 h. The half-life [1, 7] was 38.2 ± 24.5 h.
With `C=CC(C)(C)c1cc(/C=C/C(=O)c2ccc(O)cc2)c(OC)cc1O` [licochalcone A] the “distribution in rat plasma (quantifiable or not)” value [1] was “unquantifiable in most QSKL-treated samples”.
